{
  "source": "patent US10017817B2",
  "about": "“Skin activation by acceleration of PDGF-BB activity” (Shiseido Company, Ltd., priority 2010, dated 2018)",
  "molecules": {"B1": {"name": "PDGF-BB: platelet-derived growth factor-BB protein (R&D Systems Inc.), homodimer of the PDGF B chain (protein, UniProt P01127 82-190, looked up)", "Platelet-derived growth …": "SLGSLTIAEPAMIAECKTRTEVFEISRRLIDRTNANFLVWPPCVEVQRCSGCCNNRNVQCRPTQVQLRPVQVRKIEIVRKKPIFKKATVTLEDHLACKCETVAAARPVT", "modifications": "homodimer", "notes": "platelet-derived growth factor-BB protein (R&D Systems Inc.), homodimer of the PDGF B chain"}},
  "key": {"[1]": {"tested_on": "PDGF-BB expression in human vascular endothelial cells HUVEC", "test": "Evaluation of PDGF-B production accelerating action in vascular endothelial cells (ELISA and quantitative RT-PCR)", "format": "cell-based", "conditions": "retinoic acid at 1 μm or 10 μm vs DMSO solvent control, cultured 2 days, PDGF-BB in culture supernatant by ELISA and PDGF-B mRNA by quantitative PCR (FIG. 8)", "experimental": "Evaluation of PDGF-B Production Accelerating Action in\nVascular Endothelial Cells\nHuman vascular endothelial cells HUVEC were sub-cultured in EGM-2 medium (Sanko Junyaku Co., Ltd.), and the fourth generation cells were suspended in Humedia-EG2 medium not containing VEGF-A (Kurabo Industries Ltd.), followed by disseminating in a collage-coated 24-well multiplate (Asahi Glass Co., Ltd.) at a ratio of 20,000 cells and culturing for 3 to 5 days at 37° C. until the cells reached confluence in the presence of 5% CO2. After replacing the medium with Humedia-EG2 medium (Kurabo Industries Ltd.) containing retinoic acid at 1 μm or 10 μm or DMSO used as a solvent control, culturing was further continued for 2 days. Following completion of culturing, the culture supernatant was recovered and PDGF-BB was quantified in accordance with the protocol provided using Human PDGF-BB Quantikine ELISA Kit (R&D Systems Inc.). […] One-step quantitative RT-PCR was then carried out on the PDGF-B gene for each sample using an equal volume of mRNA as template, using the primer pair of SEQ ID NO: 9 and SEQ ID NO: 10, and using QuantiFast SYBR Green RT-PCR Kit (Qiagen Inc.) for the reaction reagent and LightCycler (Roche Diagnostics GmbH) for the reaction apparatus. […]"}, "[2]": {"tested_on": "adipose-derived mesenchymal stem cells MSC", "test": "Evaluation of migration ability of mesenchymal stem cells (cell insert assay)", "format": "cell-based", "conditions": "5 ng/ml to 30 ng/ml in StemPro serum-free MSC medium; overnight; in comparison with PDGF-AA and PDGF-AB (FIG. 2)", "experimental": "Evaluation of Migration Ability\nCommercially available adipose-derived mesenchymal stem cells MSC were purchased and sub-cultured in MesenPro mesenchymal stem cell medium (Invitrogen Corp.). Then, PDGF-AA, PDGF-AB or PDGF-BB (R&D Systems Inc.) was added to StemPro serum-free MSC medium (Invitrogen Corp.) in 24-well culture plates at a concentration of 5 ng/ml to 30 ng/ml, and fibronectin-coated cell inserts (BD Bioscience Inc.) were placed thereon followed by seeding 50,000 MSC suspended in StemPro medium. After culturing overnight in a CO2 incubator, the culture fluid was removed by aspiration. Thereafter, the cell inserts were immersed for 10 minutes in Hoechist 33258-PBS solution, and the nuclei of cells adhered to the cell insert were stained. After washing with PBS, the backs of the cell inserts were observed under a fluorescence microscope and images were captured. Five random images of each cell insert were captured followed by counting the number of cells that transferred to the cell insert."}},
  "data": [
    {"molecule": "CC1=C(/C=C/C(C)=C/C=C/C(C)=C/C(=O)O)C(C)(C)CCC1", "note": "[tretinoin, all-trans retinoic acid]", "values": [
      {"measurement": "acceleration of expression of PDGF-BB", "setting": "[1]", "result": "concentration-dependent activity"},
      {"measurement": "acceleration of expression of PDGF-BB", "setting": "[1]; listed as retinoic acid", "result": "accelerates expression of PDGF-BB"}
    ]},
    {"molecule": "B1", "values": [
      {"measurement": "migration ability of mesenchymal stem cells", "setting": "[2]", "result": "significantly enhance the migration ability of stem cells"}
    ]}
  ]
}
